In publication PMC6515380 (2019):

Experiments:
[1] = tested on: wtTel26 (DNA, G4) TTAGGGTTAGGGTTAGGGTTAGGGTT; experiment: 1D 1H NMR titration; details: 25 mM potassium phosphate, 70 mM KCl, pH 7, 25 °C, 100–250 µM DNA
[2] = tested on: wtTel26 (DNA, G4) TTAGGGTTAGGGTTAGGGTTAGGGTT; experiment: fluorescence titration; details: 100 mM K+, 25 °C, pH 7; for Kd: 0.2 μM ligand titrated with DNA; for ΔGbindo(expt): 0.2 μM ligand, ΔG obtained from experimentally determined Kd
[3] = medium exchange, peak broadening, less specific

SMILES	binding [1, 3]	Kd [2]	ΔGbindo(expt) [2]	binding ([1]; slow exchange, well-defined complex)
COc1cc2c(cc1OC)-c1cc3ccc(OC)c(OC)c3c[n+]1CC2	yes	740 ± 20.6 nM	-8.41 ± 0.01 kcal/mol	–
COc1cc2c(cc1OC)-c1cc3ccc4c(c3c[n+]1CC2)OCO4	–	16 ± 1.6 nM	-10.70 ± 0.02 kcal/mol	yes
COc1ccc2cc3[n+](cc2c1OC)CCc1cc2c(cc1-3)OCO2	yes	1994 ± 46.1 nM	-7.82 ± 0.06 kcal/mol	–
c1c2c(cc3c1OCO3)-c1cc3ccc4c(c3c[n+]1CC2)OCO4	yes	333 ± 5.7 nM	-8.89 ± 0.1 kcal/mol	–
